biological target: human GOAT (Homo sapiens (Human), UniProt Q96T53); test: Determination of hGOAT Activity in HEK293 Cells after Incubation with Test Compound; assay type: cell-based; conditions: HEK293 cells stably transfected with preproghrelin and human GOAT; octanoate-BSA 100 μM; acyl-ghrelin in medium by ELISA after 5 hours
Description: Determination of hGOAT Activity in HEK293 Cells after Incubation with Test Compound
HEK293 cells stably transfected with two expression vectors, one coding for preproghrelin cDNA and a second for the expression of human GOATcDNA are used as a cellular model. After feeding the cells with octanoic acid for 5 hours, acyl-ghrelin is measured in cell culture medium by an ELISA procedure.
Cellline: Hek293 hGOAT/PPGhrl Clone #1B8Sodium octanoate, Sigma, Cat.-No. C5038
BD Poly-D-Lysin 384-well Plates, black-clear polystyrene BD Bioscience Cat.-No. […] ELISA human acylated Ghrelin Kit purchased from Bertin Pharman (detailed composition of buffers e.g. wash-puffer, ELISA buffer not known)
Cells are plated with a density of 5000 cells/well in 384-well poly-D-lysin plates and incubated for 1 day at 37° C., 5% CO2 in DMEM medium, 10% FCS, 1×NEAA, Puromycin (0.5 μg/ml) and G418 (1 mg/ml). Then the medium is changed to a identical medium without FCS and containing Octanoate-BSA (final concentration 100 μM each) and compound in DMSO (final DMSO concentration 0.3%). After incubation for 5 hours acylghrelin in the medium is measured by ELISA
The medium sample is diluted 1:25 in Elisa buffer, A 25 ul aliquot is transferred to a 384-well ELISA plate previously washed 4 times with 100 μL wash buffer, and 25 μl tracer-solution is added. After incubation overnight (˜20 h) at 4° C. temperature the plate is washed 4 times with 100 μl wash-buffer per well. Finally 50 μl Ellman's reagent is added to each well and the plate is incubated in the dark for 20 minutes. The absorbance is measured at 405 nm in an Envision multilabel reader and the amount of acylated ghrelin is calculated according to a acylated ghrelin standard curve provided in the same plate.
The analysis of the data is performed by calculation of the percentage of acyl-ghrelin produced in the presence of test compound compared to the amount of acyl-ghrelin produced in the vehicle control samples. An inhibitor of the GOAT enzyme will give values between 100% CTL (no inhibition) and 0% CTL (complete inhibition). IC50 values are calculated with Assay Explorer or other suited software based on curve fitting of results of 8 different compound concentrations.

Sequence of human GOAT (Q96T53 whole entry): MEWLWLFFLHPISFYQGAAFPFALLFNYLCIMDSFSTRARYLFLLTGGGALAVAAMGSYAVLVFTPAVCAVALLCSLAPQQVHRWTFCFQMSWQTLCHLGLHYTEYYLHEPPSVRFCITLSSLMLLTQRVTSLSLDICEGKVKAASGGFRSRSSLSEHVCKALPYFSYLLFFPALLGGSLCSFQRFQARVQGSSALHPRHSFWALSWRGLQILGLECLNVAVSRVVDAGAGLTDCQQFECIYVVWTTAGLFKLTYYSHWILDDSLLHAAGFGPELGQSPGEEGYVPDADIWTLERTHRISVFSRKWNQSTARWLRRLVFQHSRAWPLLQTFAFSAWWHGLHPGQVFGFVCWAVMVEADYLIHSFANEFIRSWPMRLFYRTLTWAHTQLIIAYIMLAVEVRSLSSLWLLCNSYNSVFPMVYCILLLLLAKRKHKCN

SMILES | IC50
Cc1nc2nonc2c(N)c1Cc1ccc(-c2c(C)noc2C)c(N)n1 [Example 66, 6-[6-Amino-5-(3,5-dimethyl-isoxazol-4-yl)-pyridin-2-ylmethyl]-5-methyl-[1,2,5]oxadiazolo[3,4-b]pyridin-7-ylamine] | 0.14 nM
Cc1nc2nonc2c(N)c1Cc1ccc(OCCF)c(C#N)n1 [Example 115, 6-(7-Amino-5-methyl-[1,2,5]oxadiazolo[3,4-b]pyridin-6-ylmethyl)-3-(2-fluoro-ethoxy)-pyridine-2-carbonitrile] | 1.2 nM
Cc1nc2nonc2c(N)c1Cc1ccc(S(C)(=O)=O)c(S(C)(=O)=O)n1 [Example 160, 6-(5,6-Bis-methanesulfonyl-pyridin-2-ylmethyl)-5-methyl-[1,2,5]oxadiazolo[3,4-b]pyridin-7-ylamine] | 3 nM
Cc1nc2nonc2c(N)c1Cc1ccc(N2CC(F)(F)C2)c(C#N)n1 [Example 151, 6-(7-Amino-5-methyl-[1,2,5]oxadiazolo[3,4-b]pyridin-6-ylmethyl)-3-(3,3-difluoro-azetidin-1-yl)-pyridine-2-carbonitrile] | 1.8 nM
CNC(=O)c1cccc(Cc2c(C)nc3nonc3c2N)n1 [Example 54, 6-(7-Amino-5-methyl-[1,2,5]oxadiazolo[3,4-b]pyridin-6-ylmethyl)-pyridine-2-carboxylic acid methylamide] | 0.24 nM
Cc1nc2nonc2c(N)c1Cc1ccc(C#N)c(OCC(F)F)n1 [Example 109, 6-(7-Amino-5-methyl-[1,2,5]oxadiazolo[3,4-b]pyridin-6-ylmethyl)-2-(2,2-difluoro-ethoxy)-nicotinonitrile] | 0.093 nM
Cc1nc(Cc2c(C)nc3nonc3c2N)ncc1C#N [Example 81, 2-(7-amino-5-methyl-[1,2,5]oxadiazolo[3,4-b]pyridin-6-ylmethyl)-4-methylpyrimidine-5-carbonitrile] | 7 nM
Cc1nc2nonc2c(N)c1Cc1ccc(C#N)c(NCC2(C)COC2)n1 [Example 135, 6-(7-Amino-5-methyl-[1,2,5]oxadiazolo[3,4-b]pyridin-6-ylmethyl)-2-[(3-methyl-oxetan-3-ylmethyl)-amino]-nicotinonitrile] | 0.2 nM
Cc1nc2nonc2c(N)c1Cc1ccc(C#N)c(OCCCF)n1 [Example 108, 6-(7-Amino-5-methyl-[1,2,5]oxadiazolo[3,4-b]pyridin-6-ylmethyl)-2-(3-fluoro-propoxy)-nicotinonitrile] | 0.026 nM
Cc1nc2nonc2c(N)c1Cc1ccc(C#N)c(NCCC(F)(F)F)n1 [Example 145, 6-(7-Amino-5-methyl-[1,2,5]oxadiazolo[3,4-b]pyridin-6-ylmethyl)-2-(3,3,3-trifluoro-propylamino)-nicotinonitrile] | 0.32 nM
Cc1nc2nonc2c(N)c1Cc1ccc(S(C)(=O)=O)c(O)n1 [Example 159, 6-(7-Amino-5-methyl-[1,2,5]oxadiazolo[3,4-b]pyridin-6-ylmethyl)-3-methanesulfonyl-pyridin-2-ol] | 15 nM
Cc1nc2nonc2c(N)c1Cc1ccc(Br)c(OCCCF)n1 [Example 101, 6-[5-Bromo-6-(3-fluoro-propoxy)-pyridin-2-ylmethyl]-5-methyl-[1,2,5]oxadiazolo[3,4-b]pyridin-7-ylamine] | 0.074 nM
Cc1nc2nonc2c(N)c1Cc1ccc(C(F)(F)F)cn1 [Example 6, 5-Methyl-6-(5-trifluoromethyl-pyridin-2-ylmethyl)-[1,2,5]oxadiazolo[3,4-b]pyridin-7-ylamine] | 0.61 nM
Cc1nc2nonc2c(N)c1Cc1ccc(OC(F)F)c(N)n1 [Example 119, 6-(6-Amino-5-difluoromethoxy-pyridin-2-ylmethyl)-5-methyl-[1,2,5]oxadiazolo[3,4-b]pyridin-7-ylamine] | 0.091 nM
Cc1nc2nonc2c(N)c1Cc1ccc(Br)c(OCC(C)(F)F)n1 [Example 99, 6-[5-Bromo-6-(2,2-difluoro-propoxy)-pyridin-2-ylmethyl]-5-methyl-[1,2,5]oxadiazolo[3,4-b]pyridin-7-ylamine] | 0.072 nM
COC(=O)Cc1ccc(Cc2c(C)nc3nonc3c2N)nc1 [Example 10, [6-(7-Amino-5-methyl-[1,2,5]oxadiazolo[3,4-b]pyridin-6-ylmethyl)-pyridin-3-yl]-acetic Acid Methyl Ester] | 13 nM
CSc1ccc(Cc2c(C)nc3nonc3c2N)nc1 [Example 44, 5-Methyl-6-(5-methylsulfanyl-pyridin-2-ylmethyl)-[1,2,5]oxadiazolo[3,4-b]pyridin-7-ylamine] | 0.17 nM

SMILES | IC50
Cc1nc2nonc2c(N)c1Cc1cc(C#N)c(C(F)(F)F)cn1 [Example 2, 2-(7-Amino-5-methyl-[1,2,5]oxadiazolo[3,4-b]pyridin-6-ylmethyl)-5-trifluoromethyl-isonicotinonitrile] | 3.6 nM
Cc1nc2nonc2c(N)c1Cc1cc(C(F)(F)F)ccn1 [Example 26, 5-Methyl-6-(4-trifluoromethyl-pyridin-2-ylmethyl)-[1,2,5]oxadiazolo[3,4-b]pyridin-7-ylamine] | 8.8 nM
Cc1nc2nonc2c(N)c1Cc1nccc(C#N)n1 [Example 51, 2-(7-amino-5-methyl-[1,2,5]oxadiazolo[3,4-b]pyridin-6-ylmethyl)pyrimidine-4-carbonitrile] | 20 nM
Cc1nc2nonc2c(N)c1Cc1cccc(C(=O)N(C)C)n1 [Example 55, 6-(7-Amino-5-methyl-[1,2,5]oxadiazolo[3,4-b]pyridin-6-ylmethyl)-pyridine-2-carboxylic Acid Dimethylamide] | 3.9 nM
Cc1nc2nonc2c(N)c1Cc1ccc(F)cn1 [Example 12, 6-(5-Fluoro-pyridin-2-ylmethyl)-5-methyl-[1,2,5]oxadiazolo[3,4-b]pyridin-7-ylamine] | 6.5 nM
CSc1nc(Cc2c(C)nc3nonc3c2N)ccc1Br [Example 102, 6-(5-Bromo-6-methylsulfanyl-pyridin-2-ylmethyl)-5-methyl-[1,2,5]oxadiazolo[3,4-b]pyridin-7-ylamine] | 0.074 nM
COc1nc(Cc2c(C)nc3nonc3c2N)ccc1Br [Example 97, 6-(5-Bromo-6-methoxy-pyridin-2-ylmethyl)-5-methyl-[1,2,5]oxadiazolo[3,4-b]pyridin-7-ylamine] | 0.022 nM
Cc1cnn(C)c1-c1ccc(Cc2c(C)nc3nonc3c2N)nc1N [Example 68, 6-[6-Amino-5-(2,4-dimethyl-2H-pyrazol-3-yl)-pyridin-2-ylmethyl]-5-methyl-[1,2,5]oxadiazolo[3,4-b]pyridin-7-ylamine] | 0.11 nM
Cc1nc2nonc2c(N)c1Cc1ncc(C(F)(F)F)c(C#N)n1 [Example 75, 2-(7-amino-5-methyl-[1,2,5]oxadiazolo[3,4-b]pyridin-6-ylmethyl)-5-(trifluoromethyl)pyrimidine-4-carbonitrile] | 2.7 nM
Cc1nc2nonc2c(N)c1Cc1ncc(Cl)c(C(F)F)n1 [Example 166, 6-[5-chloro-4-(difluoromethyl)pyrimidin-2-yl]methyl-5-methyl-[1,2,5]oxadiazolo[3,4-b]pyridin-7-amine] | 0.38 nM
Cc1nc2nonc2c(N)c1Cc1cccc(C#N)n1 [Example 164, 6-(7-Amino-5-methyl-[1,2,5]oxadiazolo[3,4-b]pyridin-6-ylmethyl)-pyridine-2-carbonitrile] | 7.4 nM
Cc1nc2nonc2c(N)c1Cc1ccc(C#N)c(OCC2(C)COC2)n1 [Example 111, 6-(7-Amino-5-methyl-[1,2,5]oxadiazolo[3,4-b]pyridin-6-ylmethyl)-2-(3-methyl-oxetan-3-ylmethoxy)-nicotinonitrile] | 0.1 nM
Cc1nc2nonc2c(N)c1Cc1ccc(C#N)c(NC2CC2)n1 [Example 139, 6-(7-Amino-5-methyl-[1,2,5]oxadiazolo[3,4-b]pyridin-6-ylmethyl)-2-cyclopropylamino-nicotinonitrile] | 0.02 nM
Cc1nc2nonc2c(N)c1Cc1cc(Cl)cc(C#N)n1 [Example 38, 6-(7-amino-5-methyl-[1,2,5]oxadiazolo[3,4-b]pyridin-6-ylmethyl)-4-chloropyridine-2-carbonitrile] | 2.6 nM
Cc1nc2nonc2c(N)c1Cc1ccc(C#N)c(F)n1 [Example 72, 6-(7-Amino-5-methyl-[1,2,5]oxadiazolo[3,4-b]pyridin-6-ylmethyl)-2-fluoro-nicotinonitrile] | 1.1 nM
Cc1nc2nonc2c(N)c1Cc1ccc(C2CC2)cn1 [Example 39, 6-[(5-cyclopropylpyridin-2-yl)methyl]-5-methyl-[1,2,5]oxadiazolo[3,4-b]pyridin-7-amine] | 0.18 nM
Cc1nc2nonc2c(N)c1Cc1ccc(Br)cn1 [Example 5, 6-(5-Bromo-pyridin-2-ylmethyl)-5-methyl-[1,2,5]oxadiazolo[3,4-b]pyridin-7-ylamine] | 0.24 nM
